The record followed here is a melting point compilation (Tetko et al.; mined from patent text by program, amines drawn as free bases though some values may be those of a salt).

In general, melting point refers to the temperature of the solid-liquid transition.

In turn, `Cc1nc2c3c(c(C(=O)N(C)C)cc2n1C)CCC(c1ccccc1)N3` (centres undefined) gave a melting point of 167 to 170 °C.

`NC(=O)c1cc2c(cc1OCC1CCCCC1)OCCC[C@@H]2N` showed a melting point of 145 to 146 °C.

`CC(C)n1c(=O)[nH]c2cc(-c3ncc(C(F)(F)F)cc3Cl)ccc21` displayed a melting point of 192 to 193 °C.

In turn, `CC1Cc2c(c(S(N)(=O)=O)nn2C)C(=O)O1` (centres undefined) registered a melting point of 142 to 144 °C.

`O=C(NCCCO)c1ccc(O)cc1` displayed a melting point of 118 to 120 °C.

In the case of `O=C(c1ccc(F)cc1)c1ccc(Cl)cn1`, the melting point fell in the range of 98 to 100 °C.

Take `O=C1Cc2cccc(S(=O)(=O)c3ccc(Cl)cc3)c2N1`: the melting point lay in the range of 218 to 221 °C.

On to `CC1(C)OC(=S)Nc2ccc(-c3ccc(C#N)s3)cc21`, for which the melting point fell in the range of 242 to 244 °C.

`O=C(Cl)Oc1c(CCl)cccc1CCl` displayed a melting point of 71.5 to 73.5 °C.

In turn, `CC(C)Cc1cc(=O)c2cc(OCCCCCN3CCC(O)CC3)ccc2o1` came in with a melting point of 98 to 99 °C.

For `CCCC1C(=O)C(NC(=O)C2CCc3ccccc3C2)=C(N)C(CCC)C1=O` (centres undefined), the melting point lay in the range of 202 to 204 °C.

The compound `CC1CNC(=Nc2ccccc2N2CCOCC2)N1` (centres undefined) came in with a melting point of 173 to 174 °C.

`ON=C1CCCc2cc(OCCn3ccnc3)ccc21` had a melting point of 177 to 179 °C.

As to `COc1ccc(-c2ccc(Cl)cc2C#N)cc1C=O`, the melting point is 187 to 189 °C.

`CC(=O)OC1N=C(c2ccccc2)c2cc(Cl)ccc2-n2c1cnc2C` (centres undefined): the melting point was in the range of 200 to 201 °C.

In turn, `C#CCCn1nnc2cc3c(=O)n(C(C)Cn4ncnn4)nnc3cc2c1=O` (centres undefined) gave a melting point of 185 to 188 °C.

Consider `Cc1noc2cc3c(cc12)C1(CO3)C(=O)N(Cc2cnccn2)c2ccccc21` (centres undefined), for which the melting point fell in the range of 170 to 173 °C.

For `O=C(O)c1ccnc(-c2ccc(Cl)c(C(=O)NCC34CC5CC(CC(C5)C3)C4)c2)c1`, the melting point lay within 284 to 287 °C.

Compound `O=C1C(c2c[nH]c3ncccc23)=C(c2cn(S(=O)(=O)c3ccccc3)c3ccccc23)C(=O)N1COCc1ccccc1` had a melting point of 94 to 96 °C.

In the case of `Cc1c(Br)ccc(C=NO)c1Cl`, the melting point was 77 to 78 °C.

Regarding `CCCCCCCCCc1ccc(-c2ccc(OCC(C)CC)nn2)cc1` (centres undefined), the melting point came out at 78 °C.

Take `NS(=O)(=O)c1ccc(-c2cccc(-c3nc(-c4ccc(Cl)cc4Cl)cc(C(F)(F)F)n3)c2)s1`: the melting point was 238 °C.

In turn, `CC(=O)NC[C@H]1CN(c2ccc(C3C=CS(=O)(=O)CC3)cc2)C(=O)O1` (some centres undefined) registered a melting point of 187 to 189 °C.

For `CCNCC1(O)CCN(c2cc3c(cc2F)c(=O)c(C(=O)O)cn3C2CC2)C1` (centres undefined), the melting point is 202 to 207 °C.

`NCC1Cc2cc(Cl)c3[nH]c(=O)ccc3c2O1` (centres undefined) registered a melting point above 300 °C.

Turning to `Cc1nn(-c2ccccn2)c(-c2ccccc2)c1CC(=O)O`, the melting point fell in the range of 182 to 183 °C.

In the case of `COc1ccc(CCCN2C(=O)c3ccccc3C2=O)cc1OC`, the melting point fell in the range of 82 to 85 °C.

With `CCCCOC(=O)C(CC(=O)O)NCCCN(C)C` (centres undefined), the melting point lay in the range of 154 to 158 °C.

In the case of `Cc1cc(OC(F)F)nc(S(C)(=O)=O)n1`, the melting point is 86 to 88 °C.

For the compound `CNC(=O)C1(Nc2nc(Nc3cc4c(cc3OC)CCN(CC(=O)N(C)C)CC4)ncc2Cl)CCCC1`, the melting point lay in the range of 75 to 87 °C.

`CCCC[C@H](NC(=O)[C@@H](NC(=O)OCc1ccccc1)[C@@H](C)CC)C(=O)CSCc1ccco1` returned a melting point of 101 to 103 °C.

Take `CSCCC1=NS(=O)(=O)NC(N)=N1`: the melting point was in the range of 243 to 246 °C.

`O=C(Nc1cccc2c1C(=O)c1c-2n[nH]c1-c1ccc(C(=O)[C@]23CN[C@H](CN2)C3)s1)NN1CCOCC1` came in with a melting point above 300 °C.

In turn, `Cc1noc(NS(=O)(=O)c2ccccc2-c2ccc(-c3ncco3)cc2CN2CCN(C(C)C)C2=O)c1C` had a melting point of 105 to 110 °C.

`c1cc2cc(Nc3ncnc4cnc(N5CCOCC5)nc34)ccc2cn1` yielded a melting point of 208 to 210 °C.

Compound `NP(N)(=O)NC(=O)c1cccnc1` returned a melting point of 280 to 283 °C.

As for `C#CCN(c1ccc(C(=O)OC(C)(C)C)cc1)C1CCc2cc3nc(COC)[nH]c(=O)c3cc21` (racemic), the melting point is 191 to 192 °C.

`COC(=O)[C@@]1(c2ccc(Br)cc2)CC1(c1ccccc1)c1ccccc1` yielded a melting point of 82 to 85 °C.

`O=C1CCC(c2c[nH]c3ncccc23)CC1` gave a melting point of 162 to 164 °C.

Compound `O=C(O)COc1ccc2c(-c3ccc(Cl)c(Cl)c3)noc2c1Cl` displayed a melting point of 222 to 224 °C.

`COc1nc2ccccc2cc1NC(=O)N1CCN(c2cccc(O)c2)CC1`: the melting point was 190 to 191 °C.

As for `CCc1ccc2c(c1)C(O)(c1ccccn1)CC(C)(C)CO2` (centres undefined), the melting point was 84 °C.

With `O=C(O)c1c(Cl)c(Cl)c(Cl)c(Cl)c1C(=O)Nc1ccc(S(=O)(=O)C(F)(F)F)cc1`, the melting point is 92 to 97 °C.

`O=c1[nH]c2cc(Cl)cc(OCCNCc3cccs3)c2[nH]1`: the melting point was 179 to 180 °C.

In turn, `CS(=O)(=O)Oc1ccc(-c2c3ccccc3c(Cl)c3sc4ccccc4c23)cc1` yielded a melting point of 155 to 158 °C.

In turn, `CCCCNC(=O)CC(F)=C(F)F` registered a melting point of 34 to 36 °C.

`O=C1CCC(Cc2ccc(Cl)cc2)N1` (centres undefined): the melting point lay within 95 to 98 °C.

The compound `NC(=O)C(CCN1CC[C@@H](OCc2cccc(Cl)c2)C1)(c1ccccc1)c1ccccc1` registered a melting point of 91 to 93 °C.

With `CCOC(=O)c1c(Cl)nc2cc(Cl)c(OC)cc2c1CCl`, the melting point is above 250 °C.

`COc1ccc2c(c1)S(=O)(=O)C(C(=O)Nc1ccc(Cl)c(Cl)c1)C(=O)N2C` (centres undefined) registered a melting point of 230 to 233 °C.

For the compound `COC(=O)c1ccc(OCC(O)c2cc3cc(C(C)(C)C)ccc3o2)cc1` (centres undefined), the melting point is 110 to 112 °C.

For the compound `CCOC(=O)CCCNC(=O)Cn1c(-c2ccc(Cl)cc2)nc2cccnc21`, the melting point fell in the range of 169 to 171 °C.

As for `Cn1nc2c(N)nc3c(c2c1CCNC(=O)N1CCOCC1)CCCC3`, the melting point was in the range of 187 to 188 °C.

As for `CC(=O)OC1CCC2(C)C(=CC(=NO)C3C2CCC2(C)C(OC(C)=O)CCC32)C1` (centres undefined), the melting point fell in the range of 236 to 238 °C.

Regarding `NC(=O)c1sc2nc(N3CCC(NCC(O)c4ccncc4)CC3)cc(C(F)(F)F)c2c1N` (centres undefined), the melting point was in the range of 217 to 220 °C.

`Cc1nc(-c2ccc(C(F)(F)F)cc2)sc1CSc1cc(C(C)C)c(OCC(=O)O)c(C(C)C)c1` had a melting point of 161 to 163 °C.

Consider `CCOC(=O)C(Cc1cccc2cccnc12)(NC=O)C(=O)OCC`, for which the melting point fell in the range of 120 to 122 °C.

With `CN1CCc2nc(C(=O)N[C@@H]3C[C@@H](C(=O)O)CC[C@H]3NC(=O)c3cc4cc(Cl)ccc4[nH]3)sc2C1`, the melting point is 234 to 236 °C.

`CCc1ccc(Cc2cc(C(=O)OC)ccc2O)cc1` returned a melting point of 134 to 137 °C.

For the compound `CCOc1cccc(Cn2ncc3c(N4CCN(C(=O)OC(C)(C)C)CC4)ncnc32)n1`, the melting point lay in the range of 130 to 132 °C.

`N#CCc1nc(C(=O)c2ccc(Cl)cc2)no1` came in with a melting point of 81 to 84 °C.

`CCCn1c(COCc2ccc(OC)cc2)nc(C(C)C)c1Sc1cc(Cl)cc(Cl)c1` gave a melting point of 104 to 107 °C.

Regarding `CC1C=CC(Oc2ccc(C(=O)O)o2)=C2N=C3CCCCC3=C21` (centres undefined), the melting point fell in the range of 150 to 152 °C.

`CC(C)(C)c1cc(S)n2ncnc2n1`: the melting point was in the range of 285 to 286 °C.
